ChEMBL document CHEMBL5584334, “Discovery of a Covalent Inhibitor of Pro-Caspase-1 Zymogen Blocking NLRP3 Inflammasome Activation and Pyroptosis” (J Med Chem, 2024)
Activity calls are given as the source filed them. The rule behind the calls is not given here.

How the values were obtained:
Caspase-1 (Homo sapiens) = target: T1, Caspase-1 (Homo sapiens) (UniProt P29466); assay: Inhibition of recombinant human caspase-1 expressed in Escherichia coli BL21 cells at 5 to 50 uM using […] as substrate incubated for 30 mins; conditions: dose 5-50 µM
T1 sequence (whole entry): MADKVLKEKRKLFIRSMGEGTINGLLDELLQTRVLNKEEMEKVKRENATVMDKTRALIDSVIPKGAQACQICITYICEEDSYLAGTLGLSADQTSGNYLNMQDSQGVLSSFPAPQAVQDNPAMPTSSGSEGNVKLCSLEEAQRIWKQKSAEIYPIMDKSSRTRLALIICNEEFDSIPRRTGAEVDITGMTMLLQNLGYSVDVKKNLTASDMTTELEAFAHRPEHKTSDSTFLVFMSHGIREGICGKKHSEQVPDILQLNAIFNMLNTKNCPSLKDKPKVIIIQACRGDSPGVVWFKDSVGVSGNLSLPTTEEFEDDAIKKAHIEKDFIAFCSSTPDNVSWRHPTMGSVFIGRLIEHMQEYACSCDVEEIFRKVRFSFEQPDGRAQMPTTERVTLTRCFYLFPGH

[1] = target: NACHT, LRR and PYD domains-containing protein 3 (Mus musculus) (UniProt Q8R4B8); assay: Inhibition of NLRP3 inflammasome activation in LPS/ATP stimulated mouse J774.A1 cells assessed as reduction in IL-1beta production incubated for 30 mins by ELISA; type: cell-based
[2] = target: NACHT, LRR and PYD domains-containing protein 3 (Mus musculus) (UniProt Q8R4B8); assay: Inhibition of NLRP3 inflammasome activation in LPS/MSU stimulated mouse J774.A1 cells assessed as reduction in IL-18 production incubated for 4 hrs by ELISA; type: cell-based
[3] = target: NACHT, LRR and PYD domains-containing protein 3 (Mus musculus) (UniProt Q8R4B8); assay: Inhibition of NLRP3 inflammasome activation in mouse BMDMs assessed as reduction in IL-1beta production at 0.5 to 2 uM pretreated with pam3CSK4 for 3 hrs followed by compound addition for 30 mins prior to cytosolic LPS stimulation for 16 hrs by ELISA; type: cell-based; conditions: BMDM, dose 0.5-2 µM, time 16.5 hrs
[4] = target: NACHT, LRR and PYD domains-containing protein 3 (Homo sapiens) (UniProt Q96P20); assay: Inhibition of NLRP3 inflammasome activation in LPS/nigericin stimulated human THP-1 cells assessed as reduction in IL-1beta production at 1 uM pretreated with LPS for 3 hrs followed by compound addition for 30 mins prior to nigericin stimulation for 45 mins by ELISA; type: cell-based; conditions: time 75.0 min
THP-1 [5] = assay: Inhibition of p20 fragment of caspase 1 protein expression in LPS/nigericin stimulated human THP-1 cells supernatant at 0.5 to 2 uM by Western blotting analysis; type: functional, cell-based; conditions: dose 0.5-2 µM
THP-1 [6] = assay: Effect on pro-caspase 1 protein expression in LPS/ATP stimulated human THP-1 cells supernatant by Western blotting analysis; type: functional, cell-based
THP-1 [7] = assay: Effect on pro-caspase-4 expression in human THP-1 cells at 2 uM pretreated with pam3CSK4 for 3 hrs followed by compound addition for 30 mins prior to cytosolic LPS stimulation for 16 hrs by ELISA; type: functional, cell-based; conditions: time 16.5 hrs
THP-1 [8] = assay: Effect on cleaved caspase-5 expression in human THP-1 cells at 2 uM pretreated with pam3CSK4 for 3 hrs followed by compound addition for 30 mins prior to cytosolic LPS stimulation for 16 hrs by ELISA; type: functional, cell-based; conditions: time 16.5 hrs
BMDM = assay: Effect on cleaved caspase-11 expression in mouse BMDM cells at 0.5 to 2 uM pretreated with pam3CSK4 for 3 hrs followed by compound addition for 30 mins prior to cytosolic LPS stimulation for 16 hrs by ELISA; type: functional, cell-based; conditions: dose 0.5-2 µM, time 16.5 hrs
[9] = target: Interferon-inducible protein AIM2 (Mus musculus) (UniProt Q91VJ1); assay: Inhibition of AIM2 inflammasome activation in mouse BMDMs assessed as reduction in caspase-1 activation at 0.5 to 2 uM primed with LPS for 3 hrs followed by incubation with compound for 30 mins and later stimulated with poly (dA:dT) for 16 hrs; type: cell-based; conditions: BMDM, dose 0.5-2 µM, time 16.5 hrs
J774.A1 [10] = assay: Inhibition of NLRP3 colocalization in LPS/nigericin stimulated mouse J774.A1 cells by fluorescent staining based assay; type: functional, cell-based
[11] = tested on: Caspase-1 (Homo sapiens), P29466 [C244A]; assay: Binding affinity to recombinant caspase-1 C244A mutant (unknown origin) at 2 uM by SDS-PAGE analysis
[12] = tested on: Caspase-1 (Homo sapiens), P29466 [C270A]; assay: Binding affinity to recombinant caspase-1 C270A mutant (unknown origin) at 2 uM by SDS-PAGE analysis
[13] = tested on: Caspase-1 (Homo sapiens), P29466 [C397A]; assay: Binding affinity to Flag-tagged caspase-1 C397A mutant (unknown origin) expressed in HEK293T cells by pull-down assay; type: cell-based
[14] = target: NACHT, LRR and PYD domains-containing protein 3 (Mus musculus) (UniProt Q8R4B8); assay: Inhibition of NLRP3 inflammasome activation in LPS primed Casp1 knockout mouse BMDM cells transfected with caspase-1 C285A mutant assessed as reduction in IL-1beta release at 2 uM preincubated for 30 mins followed by nigericin stimulation; type: cell-based
[15] = target: NACHT, LRR and PYD domains-containing protein 3 (Mus musculus) (UniProt Q8R4B8); assay: Inhibition of NLRP3 inflammasome activation in LPS primed Casp1 knockout mouse BMDM cells transfected with caspase-1 C285A/C397A double mutant assessed as reduction in IL-1beta release at 2 uM preincubated for 30 mins followed by nigericin stimulation; type: cell-based
J774.A1 [16] = assay: Inhibition of pyroptosis in mouse J774.A1 cells assessed as reduction in number of propidium iodide positive cells at 0.5 to 2 uM pretreated with LPS for 3 hrs followed by compound addition in presence of nigericin by flow cytometry analysis; type: functional, cell-based; conditions: dose 0.5-2 µM
HEK293T [17] = assay: Inhibition of recombinant wild type caspae-1 (unknown origin) to GSDMD (unknown origin) interaction expressed in HEK293T cells; type: cell-based; conditions: Homo sapiens
HEK293T [18] = assay: Inhibition of recombinant caspae-1 C285A/C397A double mutant (unknown origin) to GSDMD (unknown origin) interaction expressed in HEK293T cells; type: cell-based; conditions: Homo sapiens
[19] = Acute toxicity in Kunming mouse assessed as heart damage at 100 mg/kg, ip administered for 14 days; type: organism-based; conditions: in vivo, 336 h, time 14 day
[20] = Acute toxicity in Kunming mouse assessed as kidney damage at 100 mg/kg, ip administered for 14 days; type: organism-based; conditions: in vivo, 336 h, time 14 day
[21] = Tmax in rat at 10 mg/kg, iv; type: ADME, organism-based; conditions: in vivo
Mus musculus [22] = assay: Anti-inflammatory activity in MSU/C18:0 free fatty acid induced Kunming mouse model of gouty arthritis assessed as effect on ASC expression at 5 to 20 mg/kg, ip preadministered with compound for 30 mins followed by MSU/C18:0 free fatty acid injection and measured after 24 hrs by Western blotting analysis; type: functional, organism-based; conditions: dose 5-20 mg/kg, time 24.5 hrs
Mus musculus [23] = assay: Anti-inflammatory activity in LPS/MSU-induced C57BL/6 mouse model of acute peritonitis assessed as reduction in IL-1beta expression at 20 mg/kg, ip preadministered intraperitoneally with compound for 30 mins followed by MSU injection and measured after 6 hrs by ELISA; type: functional, organism-based; conditions: time 6.5 hrs
Mus musculus [24] = assay: Anti-inflammatory activity in LPS/MSU-induced Casp1 knockout C57BL/6 mouse model of acute peritonitis assessed as reduction in IL-1beta expression at 20 mg/kg, ip preadministered intraperitoneally with compound for 30 mins followed by MSU injection and measured after 6 hrs by ELISA; type: functional, organism-based

Chain of NACHT, LRR and PYD domains-containing protein 3 (Mus musculus) (Q8R4B8 whole entry, the tested form may be a part): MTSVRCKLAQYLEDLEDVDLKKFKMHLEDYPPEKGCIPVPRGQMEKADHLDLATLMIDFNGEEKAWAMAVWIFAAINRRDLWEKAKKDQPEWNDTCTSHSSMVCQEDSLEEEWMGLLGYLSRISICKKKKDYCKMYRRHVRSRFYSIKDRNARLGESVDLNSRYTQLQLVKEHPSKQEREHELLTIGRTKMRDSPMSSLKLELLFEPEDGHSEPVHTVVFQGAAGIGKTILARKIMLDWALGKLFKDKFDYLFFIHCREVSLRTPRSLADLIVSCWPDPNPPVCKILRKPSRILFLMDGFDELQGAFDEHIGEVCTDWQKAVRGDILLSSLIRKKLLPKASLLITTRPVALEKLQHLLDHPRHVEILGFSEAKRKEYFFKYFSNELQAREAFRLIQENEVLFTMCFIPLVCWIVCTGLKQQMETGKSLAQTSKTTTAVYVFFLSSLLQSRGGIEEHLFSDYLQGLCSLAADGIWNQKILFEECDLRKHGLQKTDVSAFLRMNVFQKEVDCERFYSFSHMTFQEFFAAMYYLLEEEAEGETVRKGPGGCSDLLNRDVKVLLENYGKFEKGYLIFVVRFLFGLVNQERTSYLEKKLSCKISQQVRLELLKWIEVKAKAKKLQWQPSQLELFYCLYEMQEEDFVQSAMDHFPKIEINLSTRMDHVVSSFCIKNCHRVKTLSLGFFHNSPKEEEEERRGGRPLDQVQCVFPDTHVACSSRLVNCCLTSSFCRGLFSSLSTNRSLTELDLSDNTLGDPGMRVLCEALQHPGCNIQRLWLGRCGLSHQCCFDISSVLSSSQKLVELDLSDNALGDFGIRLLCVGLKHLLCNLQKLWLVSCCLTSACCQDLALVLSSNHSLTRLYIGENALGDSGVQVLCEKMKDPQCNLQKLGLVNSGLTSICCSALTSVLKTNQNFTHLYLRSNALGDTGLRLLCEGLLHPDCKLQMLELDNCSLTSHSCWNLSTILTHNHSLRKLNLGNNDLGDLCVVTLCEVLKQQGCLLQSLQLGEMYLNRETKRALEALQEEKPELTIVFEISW
Chain of Interferon-inducible protein AIM2 (Mus musculus) (Q91VJ1 whole entry): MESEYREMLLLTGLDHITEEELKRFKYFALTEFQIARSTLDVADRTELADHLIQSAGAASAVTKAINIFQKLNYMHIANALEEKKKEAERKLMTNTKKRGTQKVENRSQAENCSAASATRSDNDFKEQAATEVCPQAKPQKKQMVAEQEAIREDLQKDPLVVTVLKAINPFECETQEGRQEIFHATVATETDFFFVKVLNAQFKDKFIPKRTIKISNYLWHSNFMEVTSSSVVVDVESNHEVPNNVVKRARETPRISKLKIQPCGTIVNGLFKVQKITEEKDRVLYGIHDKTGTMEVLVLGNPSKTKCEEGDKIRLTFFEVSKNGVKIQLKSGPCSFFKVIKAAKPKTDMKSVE
Chain of Caspase-1 (Homo sapiens), P29466 [C270A] (P29466 whole entry C270A): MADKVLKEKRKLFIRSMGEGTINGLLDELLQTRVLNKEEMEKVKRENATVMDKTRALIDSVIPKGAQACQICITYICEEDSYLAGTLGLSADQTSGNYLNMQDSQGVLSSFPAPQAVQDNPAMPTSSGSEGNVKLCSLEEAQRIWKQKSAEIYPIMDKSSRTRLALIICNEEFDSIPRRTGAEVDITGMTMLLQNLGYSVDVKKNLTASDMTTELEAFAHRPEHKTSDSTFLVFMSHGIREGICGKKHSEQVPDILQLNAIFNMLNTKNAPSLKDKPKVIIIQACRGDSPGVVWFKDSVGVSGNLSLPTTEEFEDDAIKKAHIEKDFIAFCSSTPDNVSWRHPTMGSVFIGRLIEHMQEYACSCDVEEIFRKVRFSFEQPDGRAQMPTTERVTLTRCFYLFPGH
Chain of Caspase-1 (Homo sapiens), P29466 [C397A] (P29466 whole entry C397A, the tested form may be a part): as the sequence (P29466 whole entry C270A) above, with A270C, C397A counted along it
Chain of Caspase-1 (Homo sapiens), P29466 [C244A] (P29466 whole entry C244A): as the sequence (P29466 whole entry C270A) above, with C244A, A270C counted along it
Chain of NACHT, LRR and PYD domains-containing protein 3 (Homo sapiens) (Q96P20 whole entry, the tested form may be a part): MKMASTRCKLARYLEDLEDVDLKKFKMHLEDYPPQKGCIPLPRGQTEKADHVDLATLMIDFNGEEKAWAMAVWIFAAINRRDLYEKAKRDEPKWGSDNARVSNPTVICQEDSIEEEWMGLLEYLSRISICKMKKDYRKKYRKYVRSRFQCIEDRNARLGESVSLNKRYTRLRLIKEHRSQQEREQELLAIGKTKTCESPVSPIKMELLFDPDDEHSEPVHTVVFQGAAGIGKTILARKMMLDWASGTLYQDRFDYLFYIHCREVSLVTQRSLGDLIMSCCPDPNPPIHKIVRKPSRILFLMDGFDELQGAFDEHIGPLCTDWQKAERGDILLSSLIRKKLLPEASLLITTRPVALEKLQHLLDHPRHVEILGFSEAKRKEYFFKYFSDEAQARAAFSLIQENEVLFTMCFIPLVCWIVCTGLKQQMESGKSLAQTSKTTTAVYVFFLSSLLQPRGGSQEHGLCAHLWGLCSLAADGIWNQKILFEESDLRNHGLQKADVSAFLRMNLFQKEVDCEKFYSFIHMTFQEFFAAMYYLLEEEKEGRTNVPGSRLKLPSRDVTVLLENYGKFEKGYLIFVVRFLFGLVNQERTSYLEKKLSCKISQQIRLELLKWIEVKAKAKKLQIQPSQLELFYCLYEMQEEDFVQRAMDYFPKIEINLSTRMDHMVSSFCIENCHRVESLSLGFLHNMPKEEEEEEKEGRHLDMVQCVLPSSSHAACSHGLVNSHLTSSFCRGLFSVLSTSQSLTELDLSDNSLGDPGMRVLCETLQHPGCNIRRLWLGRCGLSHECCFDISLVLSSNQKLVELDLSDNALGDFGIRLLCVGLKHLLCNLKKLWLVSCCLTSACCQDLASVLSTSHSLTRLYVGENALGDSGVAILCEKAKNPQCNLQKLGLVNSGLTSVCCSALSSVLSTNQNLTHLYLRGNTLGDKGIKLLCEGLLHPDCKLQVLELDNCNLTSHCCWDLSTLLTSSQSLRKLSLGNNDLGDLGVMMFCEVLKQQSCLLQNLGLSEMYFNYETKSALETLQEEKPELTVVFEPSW

With `COc1ccc2c(c1)[C@]1(C=C[C@H](N=C=S)C[C@H]1C(=O)OC(C)(C)C)C(=O)N2C(=O)OCc1ccccc1` the “inhibition (active/not active)” value (Caspase-1 (Homo sapiens)) was “Active”, the inhibition [1] was “Active” and the inhibition [2] was “Active”. For the same compound, the inhibition [3] was “Active”, the inhibition [4] was “Active” and the inhibition (THP-1 [5]) was “Active”. For the same compound, the Activity (THP-1 [6]) was “inactive”, the Activity (THP-1 [7]) was “inactive” and the Activity (THP-1 [8]) was “inactive”. The Activity (BMDM) was “inactive”, the inhibition [9] was “Active” and the inhibition (J774.A1 [10]) was “Active”. The Activity [11] was “Active”, the Activity [12] was “Active” and the Activity [13] was “inactive”. For the same compound, the inhibition [14] was “inactive”, the inhibition [15] was “inactive” and the inhibition (J774.A1 [16]) was “Active”. The inhibition (HEK293T [17]) was “Active”, the inhibition (HEK293T [18]) was “inactive” and the Activity [19] was “Non-Toxic”. For the same compound, the Activity [20] was “Non-Toxic”, the Tmax [21] was 4.98 min and the Activity (Mus musculus [22]) was “inactive”. The Activity (Mus musculus [23]) was “Active” and the Activity (Mus musculus [24]) was “inactive”.
